From EP0314302A2, “Herbicidal o-carbomethoxy-sulfonylureas” (E.I. DU PONT DE NEMOURS AND COMPANY, priority 1987, dated 1989)

Experiments:
Narrowleaf panicum [1] = test: Test 3 postemergence weed control; type: in vivo, P. maximum; conditions: 32 g/ha, scale 0-100
Description: Seeds of crabgrass (Digitaria spp), guinea grass (Panicum maximum) and narrowleaf panicum (P. maximum) were planted in 15-cm plastic pots. The weeds were treated postemergence with compound I, formulated in a non-phytotoxic solvent, when the plants had 3 or more leaves and had tillered. The degree of weed control was visually rated 17 days after compound application (DAT). Control ratings were based on a scale of 0 to 100 where 0 = no effect, 20 = minimal control and 100 = complete control.

Sheperdspurse = test: Test 7 postemergence; type: in vivo, Capsella bursa-pastoris; conditions: scale 0-100
Description: (§1) Individual 11.4-cm plastic pots filled with planting medium were seeded with rape, wild radish (Raphanus raphanistruna). tansy mustard (Descurainia pinnata), ball mustard (Neslia paniculata), black mustard (Brassica nigra), yellow mustard, brown mustard, lentils, safflower, flax, sunflower, peanut, vetch, alfalfa, field bean, pea, violet (Viola spp), Kochia (Kochia spp), Russian thistle (Salsola spp), Matricaria spp, groundsel (Senecio spp), shepherdspurse (Capsella bursa-pastoris), nightshade (Solanum spp), sowthistle (Sonchus spp), sugar beet, wheat, "Bonanza" barley and "Morex" barley, Kentucky bluegrass (Poa pratensis), red clover (Trifolium pratense), dandelion (Taraxacum spp) and buckhorn plantain (Plantago lanceolata).
(§2) Plants were treated postemergence with the compound formulated with a non-phytotoxic carrier. Plants were visually rated 18 days after treatment (DAT). Response ratings were based on the scale of 0 to 100 where 0 = no effect, 20 = minimal injury and 100 = complete control.

Johnsongrass = test: Test 11 windowsill flats, postemergence; type: in vivo, Sorghum halepense; conditions: Postemergence 32 g/ha, 0.25% X-77 surfactant, scale 0-100
Description: (§3) Budded citrus seedlings were planted in 30-liter plastic pots which were also seeded with sandbur, guineagrass, narrowleaf panicum, common ragweed, yellow nutsedge, purple nutsedge and bindweed. Compound I was applied preemergence and postemergence to the weeds. Treatments were sprayed to simulate the trunk-to-trunk herbicide application method used in some citrus groves. The compound was also applied postemergence to weeds grown in windowsill flats. The flats were filled with planting medium and seeded with morningglory (Ipomoea spp.). purple nutsedge (Cyperus rotundus), pigweed (Amaranthus spp.), bindweed (Convolvulus spp.), narrowleaf panicum (Panicum maximum), common ragweed (Ambrosia artemisiifolia), sandbur (Cenchrus echinatus), itchgrass (Rottboellia exaltata), johnsongrass (Sorghum halepense), guineagrass (Panicum maximum), smooth crabgrass (Digitaria ischaemum), broadleaf signalgrass (Brachiaria platyphylla), bermudagrass (Cynodon dactylon), goosegrass (Eleusine indica), large crabgrass (Digitaria sanguinalis) and yellow nutsedge (Cyperus esculentus).
(§4) The compound was formulated and sprayed with 0.25% X-77 surfactant in water. Plants were visually rated 21 and 29 days after treatment and compared with appropriate controls. Injury ratings were based on the scale of 0 to 100, where 0 indicates no effect, 20 indicates minimum effect and 100 indicates complete control. […]

Wild radish = test: Test 7 postemergence; type: in vivo, Raphanus raphanistruna; conditions: scale 0-100
Description: as §1, §2

Common ragweed [2] = test: Test 11 windowsill flats, postemergence; type: in vivo, Ambrosia artemisiifolia; conditions: Postemergence 32 g/ha, 0.25% X-77 surfactant, scale 0-100
Description: as §3, §4

Tansy mustard = test: Test 7 postemergence; type: in vivo, Descurainia pinnata; conditions: scale 0-100
Description: as §1, §2

Morningglory = test: Test 11 windowsill flats, postemergence; type: in vivo, Ipomoea spp.; conditions: Postemergence 32 g/ha, 0.25% X-77 surfactant, scale 0-100
Description: as §3, §4

Guineagrass = test: Test 11 windowsill flats, postemergence; type: in vivo, Panicum maximum; conditions: Postemergence 32 g/ha, 0.25% X-77 surfactant, scale 0-100
Description: as §3, §4

Narrowleaf panicum [3] = test: Test 11 windowsill flats, postemergence; type: in vivo, Panicum maximum; conditions: Postemergence 32 g/ha, 0.25% X-77 surfactant, scale 0-100
Description: as §3, §4

Boston fern = test: Test 9 postemergence; type: in vivo, Nephrolepis exalata; conditions: scale 0-100
Description: (§5) Plastic windowsill pots containing planting medium were seeded with bahiagrass, bindweed (Convolvulus spp), guinea grass (Panicum maximum), large crabgrass (Digitaria sanguinalis) and pigweed (Amaranthus spp). Individual 15-cm plastic pots contained sandbur (Cenchrus echinatus), Mikania cordata, Boston fern (Nephrolepis exalata), quackgrass (Agropyron repens), elephantgrass (Pennisetum purpureum) and sowthistle (Sonchus spp) plants.
(§6) Plants were treated postemergence with Compound I formulated in a non-phytotoxic solvent. Plants were visually rated 22 days after treatment (DAT). Injury and weed control ratings were based on the scale of 0 to 100 where 0 = no effect, 20 = minimal control and 100 = complete control.

Bindweed [4] = test: Test 11 citrus pots, preemergence to the weeds; type: in vivo, Convolvulus spp.; conditions: Preemergence 32 g/ha; 0.25% X-77 surfactant; scale 0-100
Description: as §3, §4

Purple nutsedge = test: Test 11 citrus pots, preemergence to the weeds; type: in vivo, Cyperus rotundus; conditions: Preemergence 32 g/ha; 0.25% X-77 surfactant; scale 0-100
Description: as §3, §4

Lalang = test: Test 9 postemergence; type: in vivo; conditions: scale 0-100
Large Crabgrass = test: Test 11 windowsill flats, postemergence; type: in vivo, Digitaria sanguinalis; conditions: Postemergence 32 g/ha, 0.25% X-77 surfactant, scale 0-100
Description: as §3, §4

Quackgrass = test: Test 9 postemergence; type: in vivo, Agropyron repens; conditions: scale 0-100
Description: as §5, §6

Sowthistle = test: Test 7 postemergence; type: in vivo, Sonchus spp; conditions: scale 0-100
Description: as §1, §2

Broadleaf signalgrass = test: Test 11 windowsill flats, postemergence; type: in vivo, Brachiaria platyphylla; conditions: Postemergence 32 g/ha, 0.25% X-77 surfactant, scale 0-100
Description: as §3, §4

Pigweed [5] = test: Test 9 postemergence; type: in vivo, Amaranthus spp; conditions: 16 g/ha, scale 0-100
Description: as §5, §6

Bindweed [6] = test: Test 11 windowsill flats, postemergence; type: in vivo, Convolvulus spp.; conditions: Postemergence 32 g/ha, 0.25% X-77 surfactant, scale 0-100
Description: as §3, §4

Pigweed [7] = test: Test 11 windowsill flats, postemergence; type: in vivo, Amaranthus spp.; conditions: Postemergence 32 g/ha, 0.25% X-77 surfactant, scale 0-100
Description: as §3, §4

Common ragweed [8] = test: Test 11 citrus pots, preemergence to the weeds; type: in vivo, Ambrosia artemisiifolia; conditions: Preemergence 32 g/ha; 0.25% X-77 surfactant; scale 0-100
Description: as §3, §4

Lantana = test: Test 12 over-the-top application, postemergence; type: in vivo, Lantana camara; conditions: 26 days after treatment, scale 0-100
From the text: The object of this test was to evaluate the safety of sour lemon to the over-the-top application of Compound I and control of lantana (Lantana camara) and trumpetcreeper (Campsis radicans). Plants were sprayed postemergence with Compound I formulated in a non-phytotoxic solvent. Treated plants were visually rated 26 days after treatment and compared with appropriate controls. Injury ratings were based on the scale of 0 to 100, where 0 indicates no effect, 20 indicates minimal effect and 100 indicates complete control.

Compound: COC(=O)c1cccnc1S(=O)(=O)NC(=O)Nc1nc(OC)cc(OC)n1 [Compound I, 2-[[(4,6-dimethoxypyrimidin-2-yl)aminocarbonyl]aminosulfonyl]-3-pyridinecarboxylic acid, methyl ester]
- Control Rating 17 DAT (Narrowleaf panicum [1]): 90
- Plant Injury Rating 18 DAT (Sheperdspurse; 16 g/ha): 100
- Plant Injury Rating 18 DAT (Sheperdspurse; 32 g/ha): 100
- Injury ratings (Johnsongrass): 100
- Plant Injury Rating 18 DAT (Wild radish; 16 g/ha): 100
- Plant Injury Rating 18 DAT (Wild radish; 32 g/ha): 100
- Injury ratings (Common ragweed [2]): 0
- Plant Injury Rating 18 DAT (Tansy mustard; 16 g/ha): 100
- Plant Injury Rating 18 DAT (Tansy mustard; 32 g/ha): 100
- Injury ratings (Morningglory): 90
- Injury ratings (Guineagrass): 100
- Injury ratings (Narrowleaf panicum [3]): 90
- Plant Injury Rating 22 DAT (Boston fern; 8 g/ha): 40
- Plant Injury Rating 22 DAT (Boston fern; 16 g/ha): 50
- Plant Injury Rating 22 DAT (Boston fern; 32 g/ha): 80
- Injury ratings (Bindweed [4]): 90
- Injury ratings (Purple nutsedge): 100
- Plant Injury Rating 22 DAT (Lalang; 8 g/ha): 0
- Plant Injury Rating 22 DAT (Lalang; 16 g/ha): 0
- Plant Injury Rating 22 DAT (Lalang; 32 g/ha): 20
- Injury ratings (Large Crabgrass): 80
- Plant Injury Rating 22 DAT (Quackgrass; 8 g/ha): 70
- Plant Injury Rating 22 DAT (Quackgrass; 16 g/ha): 90
- Plant Injury Rating 22 DAT (Quackgrass; 32 g/ha): 100
- Plant Injury Rating 18 DAT (Sowthistle; 16 g/ha): 100
- Plant Injury Rating 18 DAT (Sowthistle; 32 g/ha): 100
- Injury ratings (Broadleaf signalgrass): 100
- Plant Injury Rating 22 DAT (Pigweed [5]): 90
- Injury ratings (Bindweed [6]): 100
- Injury ratings (Pigweed [7]): 100
- Injury ratings (Common ragweed [8]): 20
- Injury ratings (Lantana; 8 g/ha): 0
- Injury ratings (Lantana; 16 g/ha): 10
- Injury ratings (Lantana; 32 g/ha): 30
